The text below walks through data of paper PMC11539218 (Antimicrobial Agents and Chemotherapy, 2024).

Broadly, the IC50 is the point on the concentration scale where inhibition reaches its midpoint.

Structures are written as SMILES.

Assay [1] deals with amastigotes of L. (L.) infantum. The note with it: cited from earlier work.
For assay [2], the system named is Peritoneal macrophages infected with L. (L.) infantum. Put plainly: Cytokines in infected macrophages (ELISA). In kind it is cell-based, BALB/c mice. The conditions noted are these: 48 and 72 h. The protocol:
L. (L.) infantum (MHOM/BR/1972/LD) promastigotes were maintained in M199 medium supplemented with 10% FBS and 0.25% hemin, pH 7.2 at 24°C. Amastigotes were isolated from golden hamsters (M. auratus) by differential centrifugation of infected spleens and the parasite’s number was determined according to Stauber ([14]). Peritoneal macrophages were obtained from the peritoneal cavity of BALB/c mice and maintained in RPMI-1640 medium supplemented with 10% FBS, pH 7.2 at 37°C.
Peritoneal macrophages (1 × 10^6/well) were infected with L. (L.) infantum […] (10:1 amastigotes/macrophage) for 24 h, at 37°C with 5% CO2. Subsequently, compound 1 (10 and 60 µM) was added and the incubation followed the same conditions described above. Cell supernatants were collected after 48 and 72 h and the cytokines (IL-4, IL-10, IL-12, and INF-γ) were measured using the BD OptEIA Mouse ELISA set kits, according to the manufacturer’s instructions. Concanavalin A (5 µg/mL) was employed as positive control and untreated cells as negative control.
Background: An ELISA detects its analyte on a solid surface through an enzyme-linked reagent.

`C=CCc1cc(OC)c(OCc2ccc(OC)cc2)c(Oc2ccc(CN3CCOCC3)cc2OC)c1` [compound 1, 4-(4-(5-allyl-3-methoxy-2-((4-methoxybenzyl)oxy)phenoxy)-3-methoxybenzyl)morpholine]: in assay [1] (intracellular amastigotes, 24 h incubation, read-out: IC50 against amastigotes of L. (L.) infantum), the IC50 is 9.7 µM. The SI in assay [1] (selectivity index) is listed as greater than 20. In addition, the IL-10 levels result in assay [2] (10 and 60 µM, vs untreated control) is on record as “reduction”. In assay [2] (only at 60 µM), the IL-4 levels result is “significantly reduced levels”, the IL-12 levels entry is given as “significantly reduced levels” and the INF-γ levels entry was “significantly reduced levels”.
